Reference: PubChem BioAssay AID1259411 (Chemical Carcinogenesis Research Information System (CCRIS), 2018)
Calls of active or inactive are those of the source. No rule for the calls is given here.

Tested on: rodent carcinogenicity bioassays, tumor incidence
Assay: CCRIS carcinogenicity studies
Conditions: Dose: 0, Dose: 0
Method in brief: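 Archive of carcinogenicity, mutagenicity, tumor promotion and tumor inhibition results drawn from journals, NCI reports and other sources, expert-reviewed; covers 1985-2011 and is no longer updated.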

[1] = Species: MOUSE, Strain/Sex: B6C3F1/MALE, Route: INTRAPERITONEAL, 400 NMOL IN 35 µL DMSO ON DAYS 1 (1/7 TOTAL DOSE), 8 (2/7 TOTAL DOSE), AND 15 (4/7 TOTAL DOSE) AFTER BIRTH (STUDY DUR

CCCCOCCOCCOCc1cc2c(cc1CCC)OCO2
carcinogen call (Species: MOUSE, Strain/Sex: B6C3F1/FEMALE, Route: ORAL, 1036, 2804 PPM IN DIET, TWA, 1036, 2804 PPM IN DIET, TWA): inactive; negative
carcinogen call (Species: MOUSE, Strain/Sex: B6C3F1/MALE, Route: ORAL, 1036, 2804 PPM IN DIET, TWA, 1036, 2804 PPM IN DIET, TWA): inactive; negative
carcinogen call (Species: MOUSE, Strain/Sex: CD-1/FEMALE, Route: ORAL, 0.6, 1.2% IN DIET FOR 52 WK (STUDY DURATION: 52 WK), 0.6, 1.2% IN DIET FOR 52 WK (STUDY DURATION: 52 WK), Tumor Site: Type of Lesion: LIVER: HEPATOCELLULAR ADENOMA, HEPATOCELLULAR CARCINOMA): active; positive
carcinogen call (Species: MOUSE, Strain/Sex: CD-1/FEMALE, Route: ORAL, 30, 100, 300 MG/KG/D IN DIET FOR 79 WK (STUDY DURATION: 79 WK), 30, 100, 300 MG/KG/D IN DIET FOR 79 WK (STUDY DURATION: 79 WK), Tumor Site: Type of Lesion: LIVER: HEPATOCELLULAR ADENOMA): active; positive
carcinogen call (Species: MOUSE, Strain/Sex: CD-1/MALE, Route: ORAL, 0.6, 1.2% IN DIET FOR 12 MO (STUDY DURATION: 12 MO), 0.6, 1.2% IN DIET FOR 12 MO (STUDY DURATION: 12 MO), Tumor Site: Type of Lesion: LIVER: HEPATOCELLULAR ADENOMA, HEPATOCELLULAR CARCINOMA, HEMANGIOENDOTHELIAL SARCOMA (SMALL), HEMANGIOENDOTHELIAL SARCOM): active; positive
carcinogen call (Species: MOUSE, Strain/Sex: CD-1/MALE, Route: ORAL, 0.6, 1.2% IN DIET FOR 52 WK (STUDY DURATION: 52 WK), 0.6, 1.2% IN DIET FOR 52 WK (STUDY DURATION: 52 WK), Tumor Site: Type of Lesion: LIVER: HEPATOCELLULAR ADENOMA, HEPATOCELLULAR CARCINOMA): active; positive
carcinogen call (Species: MOUSE, Strain/Sex: CD-1/MALE, Route: ORAL, 30, 100, 300 MG/KG/D IN DIET FOR 79 WK (STUDY DURATION: 79 WK), 30, 100, 300 MG/KG/D IN DIET FOR 79 WK (STUDY DURATION: 79 WK), Tumor Site: Type of Lesion: LIVER: HEPATOCELLULAR ADENOMA): active; positive
carcinogen call (Species: RAT, Strain/Sex: F344/FEMALE, Route: ORAL, 0.5, 1% IN DIET FOR 2 YR (STUDY DURATION: 110 WK), 0.5, 1% IN DIET FOR 2 YR (STUDY DURATION: 110 WK)): inactive; negative
carcinogen call (Species: RAT, Strain/Sex: F344/FEMALE, Route: ORAL, 0.6, 1.2, 2.4% IN DIET FOR 96 WK (STUDY DURATION: 96 WK), 0.6, 1.2, 2.4% IN DIET FOR 96 WK (STUDY DURATION: 96 WK), Tumor Site: Type of Lesion: LIVER: HEPATOCELLULAR ADENOMA, HEPATOCELLULAR CARCINOMA): active; positive
carcinogen call (Species: RAT, Strain/Sex: F344/FEMALE, Route: ORAL, 5000, 10000 PPM IN DIET, 5000, 10000 PPM IN DIET): inactive; negative
carcinogen call (Species: RAT, Strain/Sex: F344/MALE, Route: ORAL, 0.5, 1% IN DIET FOR 2 YR (STUDY DURATION: 110 WK), 0.5, 1% IN DIET FOR 2 YR (STUDY DURATION: 110 WK)): inactive; negative
carcinogen call (Species: RAT, Strain/Sex: F344/MALE, Route: ORAL, 0.6, 1.2, 2.4% IN DIET FOR 95 WK (STUDY DURATION: 95 WK), 0.6, 1.2, 2.4% IN DIET FOR 95 WK (STUDY DURATION: 95 WK), Tumor Site: Type of Lesion: LIVER: HEPATOCELLULAR ADENOMA, HEPATOCELLULAR CARCINOMA): active; positive
carcinogen call (Species: RAT, Strain/Sex: F344/MALE, Route: ORAL, 5000, 10000 PPM IN DIET, 5000, 10000 PPM IN DIET): inactive; negative
carcinogen call (Species: RAT, Strain/Sex: SPRAGUE-DAWLEY/FEMALE, Route: ORAL, 30, 100, 500 MG/KG/D IN DIET FOR 104-105 WK (STUDY DURATION: 105 WK), 30, 100, 500 MG/KG/D IN DIET FOR 104-105 WK (STUDY DURATION: 105 WK)): inactive; negative
carcinogen call (Species: RAT, Strain/Sex: SPRAGUE-DAWLEY/MALE, Route: ORAL, 30, 100, 500 MG/KG/D IN DIET FOR 104-105 WK (STUDY DURATION: 105 WK), 30, 100, 500 MG/KG/D IN DIET FOR 104-105 WK (STUDY DURATION: 105 WK)): inactive; negative

NNC(=O)c1ccccc1
carcinogen call (Species: MOUSE, Strain/Sex: SWISS/FEMALE, Route: ORAL, 0.1% SOLUTION IN DRINKING WATER STARTING AT 6 WK OF AGE AND CONTINUED FOR LIFE FOR AN AVERAGE DAILY INTAKE OF 0, 0.57, 0.1% SOLUTION IN DRINKING WATER STARTING AT 6 WK OF AGE AND CONTINUED FOR LIFE FOR AN AVERAGE DAILY INTAKE OF 0, 0.57, Tumor Site: Type of Lesion: LUNG: ADENOMA, LUNG: ADENOMA AND ADENOCARCINOMA): active; positive
carcinogen call (Species: MOUSE, Strain/Sex: SWISS/MALE, Route: ORAL, 0.01% SOLUTION IN DRINKING WATER STARTING AT 6 WK OF AGE AND CONTINUED FOR LIFE FOR AN AVERAGE DAILY INTAKE OF 0, 0.8, 0.01% SOLUTION IN DRINKING WATER STARTING AT 6 WK OF AGE AND CONTINUED FOR LIFE FOR AN AVERAGE DAILY INTAKE OF 0, 0.8, Tumor Site: Type of Lesion: LUNG: ADENOMA, LUNG: ADENOMA AND ADENOCARCINOMA): active; positive

O=[N+]([O-])c1ccc2ccc3c4ccccc4cc4ccc1c2c43
carcinogen call [1]: inactive; negative
carcinogen call (Species: RAT, Strain/Sex: F344/MALE, Route: SUBCUTANEOUS, 500, 1000 UG SUSPENDED IN BEESWAX/TRICAPRYLIN (1:1) ONCE (STUDY DURATION: LIFETIME), 500, 1000 UG SUSPENDED IN BEESWAX/TRICAPRYLIN (1:1) ONCE (STUDY DURATION: LIFETIME)): inactive; negative

O=[N+]([O-])c1cc2c3c(cccc3c1)-c1ccccc1-2
carcinogen call [1]: inactive; negative

[Cl][Hg][Cl]
carcinogen call (Species: MOUSE, Strain/Sex: B6C3F1/FEMALE, Route: GAVAGE, 5, 10 MG/KG IN DEIONIZED WATER 5 D/WK FOR 103-104 WK (STUDY DURATION: 104 WK), 5, 10 MG/KG IN DEIONIZED WATER 5 D/WK FOR 103-104 WK (STUDY DURATION: 104 WK)): inactive; negative
carcinogen call (Species: MOUSE, Strain/Sex: B6C3F1/MALE, Route: GAVAGE, 5, 10 MG/KG IN DEIONIZED WATER 5 D/WK FOR 103-104 WK (STUDY DURATION: 104 WK), 5, 10 MG/KG IN DEIONIZED WATER 5 D/WK FOR 103-104 WK (STUDY DURATION: 104 WK), Tumor Site: Type of Lesion: KIDNEY (RENAL TUBLE): ADENOMA, ADENOCARCINOMA): equivocal
carcinogen call (Species: MOUSE, Strain/Sex: SWISS/FEMALE, Route: ORAL, 5 PPM (HG) IN DRINKING WATER FOR DURATION OF STUDY (STUDY DURATION: LIFE SPAN)): inactive; negative
carcinogen call (Species: MOUSE, Strain/Sex: SWISS/MALE, Route: ORAL, 5 PPM (HG) IN DRINKING WATER FOR DURATION OF STUDY (STUDY DURATION: LIFE SPAN)): inactive; negative
carcinogen call (Species: RAT, Strain/Sex: F344/FEMALE, Route: GAVAGE, 2.5, 5 MG/KG IN DEIONIZED WATER 5 D/WK FOR 103-104 WK (STUDY DURATION: 104 WK), 2.5, 5 MG/KG IN DEIONIZED WATER 5 D/WK FOR 103-104 WK (STUDY DURATION: 104 WK), Tumor Site: Type of Lesion: FORESTOMACH: SQUAMOUS CELL PAPILLOMA): equivocal
carcinogen call (Species: RAT, Strain/Sex: F344/MALE, Route: GAVAGE, 2.5, 5 MG/KG IN DEIONIZED WATER 5 D/WK FOR 103-104 WK (STUDY DURATION: 104 WK), 2.5, 5 MG/KG IN DEIONIZED WATER 5 D/WK FOR 103-104 WK (STUDY DURATION: 104 WK), Tumor Site: Type of Lesion: THYROID GLAND: FOLLICULAR CELL CARCINOMA, FOLLICULAR CELL CARCINOMA OR ADENOMA, FORESTOMACH: SQUAMOUS CELL PAPILLOMA): active; positive
